{
  "source": "patent USRE49735E1",
  "about": "(BRISTOL-MYERS SQUIBB COMPANY, priority 2010, dated 2023)",
  "note": "Where “and” joins values, the source holds several entries; their conditions need not be identical. Equal entries are not always repeated.",
  "data": [
    {"molecular_target": "human mGluR5A (Homo sapiens, UniProt P41594)", "sequence (P41594 21-1180 isoform P41594-2)": "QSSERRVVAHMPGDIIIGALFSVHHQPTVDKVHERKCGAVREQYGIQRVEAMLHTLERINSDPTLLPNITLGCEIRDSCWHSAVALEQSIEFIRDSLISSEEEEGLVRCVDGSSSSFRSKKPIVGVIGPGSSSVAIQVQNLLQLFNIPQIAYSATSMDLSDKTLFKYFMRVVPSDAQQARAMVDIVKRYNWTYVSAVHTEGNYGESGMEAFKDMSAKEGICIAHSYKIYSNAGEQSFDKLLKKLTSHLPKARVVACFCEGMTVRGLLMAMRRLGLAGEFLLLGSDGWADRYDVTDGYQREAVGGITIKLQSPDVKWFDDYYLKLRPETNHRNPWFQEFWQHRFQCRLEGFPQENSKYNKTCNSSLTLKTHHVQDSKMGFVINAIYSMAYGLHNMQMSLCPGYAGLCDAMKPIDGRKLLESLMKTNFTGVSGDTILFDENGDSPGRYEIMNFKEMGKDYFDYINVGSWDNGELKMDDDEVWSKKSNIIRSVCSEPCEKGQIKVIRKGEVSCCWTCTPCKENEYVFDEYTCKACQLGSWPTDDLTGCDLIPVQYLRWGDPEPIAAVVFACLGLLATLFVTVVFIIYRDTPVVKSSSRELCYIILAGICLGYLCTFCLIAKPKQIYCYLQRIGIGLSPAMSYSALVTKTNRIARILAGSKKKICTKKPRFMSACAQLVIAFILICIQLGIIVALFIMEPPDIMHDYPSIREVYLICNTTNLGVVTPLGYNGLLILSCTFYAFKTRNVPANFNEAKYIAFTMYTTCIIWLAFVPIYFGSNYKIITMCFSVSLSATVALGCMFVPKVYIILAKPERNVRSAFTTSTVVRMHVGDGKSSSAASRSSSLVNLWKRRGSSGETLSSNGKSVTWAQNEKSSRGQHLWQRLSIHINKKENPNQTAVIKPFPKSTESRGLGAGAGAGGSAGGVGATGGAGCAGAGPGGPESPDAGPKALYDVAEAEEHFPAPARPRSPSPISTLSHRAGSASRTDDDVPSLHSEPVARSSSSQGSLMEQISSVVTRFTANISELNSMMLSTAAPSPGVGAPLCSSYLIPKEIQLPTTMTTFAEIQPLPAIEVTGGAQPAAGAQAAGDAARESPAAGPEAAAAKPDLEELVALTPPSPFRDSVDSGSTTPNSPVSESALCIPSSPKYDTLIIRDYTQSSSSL", "assay": "mGluR5 FLIPR Assay", "format": "cell-based", "settings": "positive modulator activity; HEK293 (ZF) cells with human mGluR5A and rat GLAST; Ca++ response to ~EC10 glutamate", "description": "HEK293 (ZF) cells stably transfected with human mGluR5A (pIRES neo) and the rat glutamate-aspartate transporter (GLAST; pIRES puro) are grown in a monolayer culture at 37° C. in 5% CO2 and fed with Minimum Essential Medium (MEM) supplemented with 10% dialysed fetal bovine serum. 24 hours prior to assay, cells are enzymatically dissociated from the culture flask (Trypsin, 0.25%), spun down (1000 rpm, 3 min), resuspended, and plated on Greiner black clear bottomed PDL-coated 384-well plates at a density of 30 thousand cells/well. […] Plates are incubated in dye at 37° C. in 5% CO2 for 60 minutes prior to delivery of test compounds in assay buffer. Test compounds are incubated with cells in the presence of dye for 10 minutes prior to being read on the FLIPR platform (Molecular Devices). A Ca^++ signal is induced in the assay plates via the delivery of an ˜EC10 concentration of the endogenous agonist 1-glutamate; images are acquired at 1 Hz for 100 seconds post-delivery of agonist stimulus. Positive modulator activity (i.e. the ability of test compounds to increase the Ca^++ response to a sub-maximal concentration of agonist) is normalized to a saturating concentration of a known mGluR5 PAM run in each assay plate. An EC50 concentration of test compounds is derived from 4-parameter logistic curve fits of transformed fluoresence data via proprietary software suite.", "values": [
      {"smiles": "Cn1nccc1[C@H]1OC(=O)N[C@@H]1c1cncc(C#Cc2ccccc2)c1", "note": "[Example 342, (4R,5S)-5-(1-methyl-1H-pyrazol-5-yl)-4-(5-(phenylethynyl)pyridin-3-yl)oxazolidin-2-one]", "EC50": "< 100 nM"},
      {"smiles": "O=C1N[C@@H](c2cncc(C#Cc3ccccc3)c2)[C@@H](c2ccnnc2)O1", "note": "(single isomer, unassigned) [Example 323]", "EC50": "> 1000 nM"},
      {"smiles": "COC(=O)c1ccc(C#Cc2cccc([C@H]3NC(=O)O[C@@H]3c3cccc(OC)c3)c2)cc1", "note": "[Example 266]", "EC50": "100 to 1000 nM"},
      {"smiles": "O=C1N[C@H](c2cncc(C#Cc3ccccc3Cl)c2)[C@@H](c2cccc(F)c2F)O1", "note": "[Example 287]", "EC50": "100 to 1000 nM"},
      {"smiles": "COc1cccc([C@H]2OC(=O)N[C@@H]2c2cccc(C#Cc3cccc(C)c3)c2)c1", "note": "[Example 54, (4R,5R)-5-(3-Methoxyphenyl)-4-(3-(m-tolylethnyl)phenyl)oxazolidin-2-one]", "EC50": "> 1000 nM"},
      {"smiles": "O=C1N[C@H](c2ccnc(C#Cc3ccccc3)c2)[C@@H](c2cccc(F)c2)O1", "note": "[Example 259]", "EC50": "< 100 nM and 1.9 nM"},
      {"smiles": "O=C1N[C@H](c2cncc(C#Cc3cccnc3)c2)[C@@H](c2cc(F)cc(F)c2)O1", "note": "[Example 181]", "EC50": "100 to 1000 nM and 279 nM"},
      {"smiles": "COc1cccc([C@H]2OC(=O)N[C@@H]2c2cccc(C#Cc3cnccc3Cl)c2)c1", "note": "[Example 84, (4R,5R)-4-(3-((4-Chloropyridin-3-yl)ethynyl)phenyl)-5-(3-methoxyphenyl)oxazolidin-2-one]", "EC50": "> 1000 nM"},
      {"smiles": "O=C1N[C@H](c2cc(C#Cc3cccc(C4CC4)n3)cnc2F)[C@@H](c2ccc(F)cc2)O1", "note": "[Example 153, (4R,5R)-4-(5-((6-Cyclopropylpyridin-2-yl)ethynyl)-2-fluoropyridin-3-yl)-5-(4-fluorophenyl)oxazolidin-2-one]", "EC50": "100 to 1000 nM and 188 nM"},
      {"smiles": "O=C1N[C@H](c2cncc(C#Cc3ccccc3)c2)[C@@H](c2cccnc2)O1", "note": "[Example 198]", "EC50": "< 100 nM"},
      {"smiles": "O=C1N[C@@H](c2cccc(C#Cc3ccccc3)n2)[C@H](c2ccc(F)cc2F)O1", "note": "(single isomer, unassigned) [Example 310]", "EC50": "> 1000 nM"},
      {"smiles": "N#Cc1cccc(C#Cc2cncc([C@H]3NC(=O)O[C@@H]3c3ccc(F)c(F)c3)c2)c1", "note": "[Example 176]", "EC50": "< 100 nM and 5.2 nM"},
      {"smiles": "O=C1N[C@H](c2ccc(C#Cc3ccccc3)nc2)[C@@H](c2cccc(F)c2)O1", "note": "[Example 408, (4R,5R)-5-(3-Fluorophenyl)-4-(6-(phenylethynyl)pyridin-3-yl)oxazolidin-2-one]", "EC50": "100 to 1000 nM"},
      {"smiles": "COc1cccc([C@H]2OC(=O)N[C@@H]2c2cccc(C#Cc3ccc(F)cc3)c2)c1", "note": "[Example 131, (4R,5R)-4-(3-((4-fluorophenyl)ethynyl)phenyl)-5-(3-methoxyphenyl)oxazolidin-2-one]", "EC50": "< 100 nM"},
      {"smiles": "O=C1N[C@@H](c2cc(C#Cc3ccccc3)ccn2)[C@H](c2ccc(F)cc2)O1", "note": "(single isomer, unassigned) [Example 298]", "EC50": "100 to 1000 nM and 232 nM"},
      {"smiles": "COc1cccc([C@H]2OC(=O)N[C@@H]2c2cccc(C#Cc3cccnc3C)c2)c1", "note": "[Example 87, (4R,5R)-5-(3-Methoxyphenyl)-4-(3-((2-methylpyridin-3-yl)ethynyl)phenyl)oxazolidin-2-one]", "EC50": "> 1000 nM"},
      {"smiles": "O=C1N[C@H](c2ccnc(C#Cc3ccccc3)c2)[C@@H](c2ccccc2)O1", "note": "[Example 20, (4R,5R)-5-Phenyl-4-(2-(phenylethynyl)pyridin-4-yl)oxazolidin-2-one]", "EC50": "< 100 nM"},
      {"smiles": "O=C1N[C@H](c2cncc(C#Cc3cncc(F)c3)c2)[C@@H](c2ccc(F)cc2)O1", "note": "(single isomer, unassigned) [Example 45]", "EC50": "< 100 nM and 3.8 nM"},
      {"smiles": "COc1cccc([C@H]2OC(=O)N[C@@H]2c2cccc(C#Cc3ccc(C#N)cc3)c2)c1", "note": "[Example 264]", "EC50": "100 to 1000 nM"},
      {"smiles": "O=C1N[C@H](c2cncc(C#Cc3ccccc3Cl)c2)[C@@H](c2cc(F)ccc2F)O1", "note": "[Example 392, (4R,5R)-4-(5-((2-chlorophenyl)ethynyl)pyridin-3-yl)-5-(2,5-difluorophenyl)oxazolidin-2-one]", "EC50": "< 100 nM"},
      {"smiles": "C[C@@]1(c2cccc(F)c2)OC(=O)N[C@@H]1c1cncc(C#Cc2ccccc2)c1", "note": "[Example 224]", "EC50": "> 1000 nM"},
      {"smiles": "O=C1N[C@H](c2cncc(C#Cc3cccc(F)c3)c2)[C@@H](c2cccc(F)c2)O1", "note": "[Example 400, (4R,5R)-5-(3-fluorophenyl)-4-(5-((3-fluorophenyl)ethynyl)pyridin-3-yl)oxazolidin-2-one]", "EC50": "< 100 nM"},
      {"smiles": "C[C@@]1(c2cncc(C#Cc3ncccc3F)c2)NC(=O)O[C@H]1c1ccc(F)cc1", "note": "(single isomer, unassigned) [Example 343]", "EC50": "> 1000 nM"},
      {"smiles": "COc1cccc([C@H]2OC(=O)N[C@@H]2c2cccc(C#Cc3ccc(OC(F)(F)F)cc3)c2)c1", "note": "[Example 268]", "EC50": "> 1000 nM"},
      {"smiles": "C[C@@]1(c2ccccc2)OC(=O)N[C@@H]1c1cncc(C#Cc2ccccc2)c1", "note": "[Example 228]", "EC50": "> 1000 nM"},
      {"smiles": "O=C1N[C@@H](c2cccc(C#Cc3ccccc3F)n2)[C@H](c2ccccc2)O1", "note": "(single isomer, unassigned) [Example 15]", "EC50": "> 1000 nM"},
      {"smiles": "C[C@]1(c2ccccc2)OC(=O)N[C@@H]1c1cncc(C#Cc2ccccc2)c1", "note": "[Example 227]", "EC50": "< 100 nM"},
      {"smiles": "O=C1N[C@H](c2cc(C#Cc3cncc(F)c3)cnc2F)[C@@H](c2cccc(F)c2)O1", "note": "[Example 140, (4R,5R)-4-(2-Fluoro-5-((5-fluoropyridin-3-yl)ethynyl)pyridin-3-yl)-5-(3-fluorophenyl)oxazolidin-2-one]", "EC50": "< 100 nM"},
      {"smiles": "COC(=O)c1cccc(C#Cc2cccc([C@H]3NC(=O)O[C@@H]3c3cccc(OC)c3)c2)c1", "note": "[Example 267]", "EC50": "100 to 1000 nM"},
      {"smiles": "Cc1ccc(C#Cc2cncc([C@H]3NC(=O)O[C@@H]3c3cc(F)ccc3F)c2)cc1", "note": "[Example 381, (4R,5R)-5-(2,5-Difluorophenyl)-4-(5-(p-tolylethynyl)pyridin-3-yl)oxazolidin-2-one]", "EC50": "100 to 1000 nM"},
      {"smiles": "C[C@]1(c2cccc(F)c2)OC(=O)N[C@@H]1c1cncc(C#Cc2ccccc2)c1", "note": "[Example 222]", "EC50": "< 100 nM"},
      {"smiles": "O=C1N[C@H](c2cncc(C#Cc3ccccc3F)c2)[C@@H](c2cccc(F)c2F)O1", "note": "[Example 284]", "EC50": "< 100 nM"},
      {"smiles": "O=C1N[C@@H](c2cccc(C#Cc3ccc(F)cc3)n2)[C@H](c2ccccc2)O1", "note": "(single isomer, unassigned) [Example 17]", "EC50": "> 1000 nM"},
      {"smiles": "O=C1N[C@@H](c2cccc(C#Cc3ccccc3)c2)[C@H](c2ccc(F)cc2)O1", "note": "[Example 115, (4S,5S)-5-(4-fluorophenyl)-4-(3-(phenylethynyl)phenyl)oxazolidin-2-one]", "EC50": "> 1000 nM"},
      {"smiles": "C[C@]1(c2cccc(F)c2)OC(=O)N[C@H]1c1cncc(C#Cc2ccccc2)c1", "note": "[Example 223]", "EC50": "100 to 1000 nM"},
      {"smiles": "O=C1N[C@@H](c2cc(C#Cc3cccc(Cl)c3)ccn2)[C@H](c2ccc(F)cc2)O1", "note": "(single isomer, unassigned) [Example 348]", "EC50": "> 1000 nM"},
      {"smiles": "O=C1N[C@H](c2cccc(C#Cc3ccccc3)c2)[C@@H](c2cccc(F)c2)O1", "note": "(racemic) [Example 111, Trans-5-(3-fluorophenyl)-4-(3-(phenylethynyl)phenyl)oxazolidin-2-one]", "EC50": "< 100 nM"},
      {"smiles": "N#Cc1cccc(C#Cc2cncc([C@H]3NC(=O)O[C@@H]3c3ccc(F)cc3)c2)c1", "note": "[Example 215]", "EC50": "< 100 nM"},
      {"smiles": "N#Cc1cncc(C#Cc2cncc([C@H]3NC(=O)O[C@@H]3c3ccc(F)cc3)c2)c1", "note": "[Example 211]", "EC50": "< 100 nM"},
      {"smiles": "O=C1N[C@@H](c2cc(C#Cc3cccc(F)c3)ccn2)[C@H](c2ccc(F)cc2)O1", "note": "(single isomer, unassigned) [Example 356]", "EC50": "100 to 1000 nM"}
    ]}
  ]
}
